SMILES strings stand for the structures.

The target of this test is T1, BK channel (Slo1, mslo1 mbr5 splice variant) (Mus musculus, UniProt Q08460).
T1 construct: gene Kcnma1; mbr5 splice variant of mslo1
Kind of test: inside-out patch-clamp of channels expressed in Xenopus oocytes (GV shift dose response; also outward-current block, IC50 […]), supported by mutagenesis. Type of test: cell-based.

As for `COc1cc(NC(=O)[C@@H](N)CCCNC(=N)N)cc2ccccc12` [BC5], the half-maximal effective concentration (EC50) – broadly, the concentration that produces a half-maximal response – was found to be 2500 ± 300 nM.
